Measured values: ChEMBL document CHEMBL4393657, “Tetrazole hybrids and their antifungal activities” (2019)
≈ marks a conversion by molar mass, not a printed value.

Tests used:
Assay type in all cases: functional
Aspergillus flavus [1] = test: Antifungal activity against Aspergillus flavus assessed as inhibition zone at 25 ug/ml by disk diffusion method; settings: read-out: IZ
Aspergillus niger [2] = test: Antifungal activity against Aspergillus niger assessed as inhibition zone at 25 ug/ml by disk diffusion method; settings: read-out: IZ
Candida albicans [3] = test: Antifungal activity against Candida albicans assessed as inhibition zone at 25 ug/ml by disk diffusion method; settings: read-out: IZ
Aspergillus fumigatus = test: Antifungal activity against Aspergillus fumigatus assessed as inhibition zone at 25 ug/ml by disk diffusion method; settings: read-out: IZ
Candida albicans [4] = test: Antifungal activity against Candida albicans ATCC 885653 assessed as inhibition zone at 100 ug/ml incubated for 48 to 72 hrs by agar-diffusion method; settings: read-out: IZ
Aspergillus niger [5] = test: Antifungal activity against Aspergillus niger
Rhizopus arrhizus = test: Antifungal activity against Rhizopus arrhizus
Candida albicans [6] = test: Antifungal activity against Candida albicans
Aspergillus flavus [7] = test: Antifungal activity against Aspergillus flavus
Mucor indicus = test: Antifungal activity against Mucor indicus
Aspergillus niger [8] = test: Antifungal activity against Aspergillus niger NCCS 1196 assessed as inhibition zone at 500 ug/ml by disk diffusion method; settings: read-out: IZ
Candida albicans [9] = test: Antifungal activity against Candida albicans NCCS 3471 assessed as inhibition zone at 500 ug/ml by disk diffusion method; settings: read-out: IZ
Candida albicans [10] = test: Antifungal activity against Candida albicans assessed as reduction in fungal cell growth incubated for 48 hrs by broth microdilution method
Aspergillus niger [11] = test: Antifungal activity against Aspergillus niger assessed as reduction in fungal cell growth incubated for 48 hrs by broth microdilution method
Candida albicans [12] = test: Antifungal activity against Candida albicans assessed as reduction in fungal cell growth incubated for 24 hrs by broth microdilution method

Compound | MIC (Aspergillus niger [5]) [µg/mL] | MIC (Rhizopus arrhizus) [µg/mL] | MIC (Candida albicans [6]) [µg/mL] | MIC (Aspergillus flavus [7]) [µg/mL] | MIC (Mucor indicus) [µg/mL] | further results
Cc1cccc(OCc2cn(Cc3ccc(-c4ccccc4-c4nnn[nH]4)cc3)nn2)c1 |  |  |  |  |  | zone of inhibition at 25 µg/mL (Aspergillus flavus [1]): 11 to 18 mm; zone of inhibition at 25 µg/mL (Aspergillus niger [2]): 11 to 18 mm; zone of inhibition at 25 µg/mL (Candida albicans [3]): 11 to 18 mm; zone of inhibition at 25 µg/mL (Aspergillus fumigatus): 11 to 18 mm
COc1ccc(C(=O)CSc2nc3ccccc3c3nnnn23)cc1 |  |  |  |  |  | zone of inhibition at 100 µg/mL (Candida albicans [4]): 6 to 22 mm
O=C(O)c1cn(C2CC2)c2nc(N3CCN(CC(=O)c4nnnn4-c4ccc(F)cc4)CC3)c(F)cc2c1=O | 6.25 (≈ 11.6 µM) | 6.25 to 100 (≈ 11.6 to 186 µM) | 6.25 to 100 (≈ 11.6 to 186 µM) | 6.25 to 100 (≈ 11.6 to 186 µM) | 6.25 to 100 (≈ 11.6 to 186 µM) | 
CC(=O)N1N=C(Cn2cc(-c3nn(-c4ccncc4)cc3-c3nnnn3-c3ccc(C(F)(F)F)cc3)c3cc(Cl)ccc32)OC1(C)c1ccc(C)cc1 (stereo unspecified) |  |  |  |  |  | zone of inhibition at 500 µg/mL (Aspergillus niger [8]): 11 to 20 mm; zone of inhibition at 500 µg/mL (Candida albicans [9]): 11 to 20 mm
CC(=O)N1N=C(Cn2cc(-c3nn(-c4ccncc4)cc3-c3nnnn3-c3ccc(C(F)(F)F)cc3)c3cc(Cl)ccc32)OC1(C)c1ccccc1 (stereo unspecified) |  |  |  |  |  | zone of inhibition at 500 µg/mL (Aspergillus niger [8]): 11 to 20 mm; zone of inhibition at 500 µg/mL (Candida albicans [9]): 11 to 20 mm
O=C(O)c1cn(C2CC2)c2nc(N3CCN(CC(=O)c4nnnn4-c4ccc(Br)cc4)CC3)c(F)cc2c1=O | 6.25 to 100 (≈ 10.5 to 167 µM) | 6.25 to 100 (≈ 10.5 to 167 µM) | 6.25 to 100 (≈ 10.5 to 167 µM) | 6.25 to 100 (≈ 10.5 to 167 µM) | 6.25 to 100 (≈ 10.5 to 167 µM) | 
O=C(CSc1nc2ccccc2c2nnnn12)c1ccccc1 |  |  |  |  |  | zone of inhibition at 100 µg/mL (Candida albicans [4]): 6 to 22 mm
CC(C)NCCSc1nc2ccccc2c2nnnn12 |  |  |  |  |  | zone of inhibition at 100 µg/mL (Candida albicans [4]): 6 to 22 mm
COc1ccc(C2c3ccc4ccccc4c3Oc3[nH]c(=S)n4nnnc4c32)cc1 (stereo unspecified) |  |  |  |  |  | MIC (Candida albicans [10]): 50 to 400 µg/mL (≈ 121 to 967 µM); MIC (Aspergillus niger [11]): 50 to 400 µg/mL (≈ 121 to 967 µM)
FC(F)(F)c1cc(-c2ccc(Br)cc2)nc2nnnn12 |  |  |  |  |  | MIC (Candida albicans [12]): 62.5 µg/mL (≈ 182 µM)
COc1ccc(-n2nnnc2C(=O)CN2CCN(c3nc4c(cc3F)c(=O)c(C(=O)O)cn4C3CC3)CC2)cc1 | 6.25 to 100 (≈ 11.4 to 182 µM) | 6.25 to 100 (≈ 11.4 to 182 µM) | 6.25 to 100 (≈ 11.4 to 182 µM) | 6.25 to 100 (≈ 11.4 to 182 µM) | 6.25 to 100 (≈ 11.4 to 182 µM) | 
CNCCSc1nc2ccccc2c2nnnn12 |  |  |  |  |  | zone of inhibition at 100 µg/mL (Candida albicans [4]): 6 to 22 mm
CC(=O)N1N=C(Cn2cc(-c3nn(-c4ccncc4)cc3-c3nnnn3-c3ccc(C(F)(F)F)cc3)c3cc(Cl)ccc32)OC1(C)c1ccc(C(F)(F)F)cc1 (stereo unspecified) |  |  |  |  |  | zone of inhibition at 500 µg/mL (Aspergillus niger [8]): 11 to 20 mm; zone of inhibition at 500 µg/mL (Candida albicans [9]): 11 to 20 mm
O=C(O)c1cn(C2CC2)c2nc(N3CCN(CC(=O)c4nnnn4-c4ccc(Cl)cc4)CC3)c(F)cc2c1=O | 6.25 to 100 (≈ 11.3 to 181 µM) | 6.25 to 100 (≈ 11.3 to 181 µM) | 6.25 to 100 (≈ 11.3 to 181 µM) | 6.25 to 100 (≈ 11.3 to 181 µM) | 6.25 to 100 (≈ 11.3 to 181 µM) | 
Cc1ccc(C2c3ccc4ccccc4c3Oc3[nH]c(=S)n4nnnc4c32)cc1 (stereo unspecified) |  |  |  |  |  | MIC (Candida albicans [10]): 50 to 400 µg/mL (≈ 126 to 1010 µM); MIC (Aspergillus niger [11]): 50 to 400 µg/mL (≈ 126 to 1010 µM)
Cc1ccc(-n2nnnc2C(=O)CN2CCN(c3nc4c(cc3F)c(=O)c(C(=O)O)cn4C3CC3)CC2)cc1 | 6.25 to 100 (≈ 11.7 to 188 µM) | 6.25 to 100 (≈ 11.7 to 188 µM) | 6.25 to 100 (≈ 11.7 to 188 µM) | 6.25 to 100 (≈ 11.7 to 188 µM) | 6.25 to 100 (≈ 11.7 to 188 µM) | 
COc1ccc(OC)c(C(=O)CSc2nc3ccccc3c3nnnn23)c1 |  |  |  |  |  | zone of inhibition at 100 µg/mL (Candida albicans [4]): 22 mm
O=C(O)c1cn(C2CC2)c2nc(N3CCN(CC(=O)c4nnnn4-c4ccc([N+](=O)[O-])cc4)CC3)c(F)cc2c1=O | 6.25 (≈ 11.1 µM) | 6.25 to 100 (≈ 11.1 to 177 µM) | 6.25 to 100 (≈ 11.1 to 177 µM) | 6.25 to 100 (≈ 11.1 to 177 µM) | 6.25 to 100 (≈ 11.1 to 177 µM) | 
S=c1[nH]c2c(c3nnnn13)C(c1ccccc1)c1ccc3ccccc3c1O2 (stereo unspecified) |  |  |  |  |  | MIC (Candida albicans [10]): 50 to 400 µg/mL (≈ 130 to 1040 µM); MIC (Aspergillus niger [11]): 50 to 400 µg/mL (≈ 130 to 1040 µM)
O=[N+]([O-])c1ccc(OCc2cn(Cc3ccc(-c4ccccc4-c4nnn[nH]4)cc3)nn2)cc1 |  |  |  |  |  | zone of inhibition at 25 µg/mL (Aspergillus flavus [1]): 11 to 18 mm; zone of inhibition at 25 µg/mL (Aspergillus niger [2]): 11 to 18 mm; zone of inhibition at 25 µg/mL (Candida albicans [3]): 11 to 18 mm; zone of inhibition at 25 µg/mL (Aspergillus fumigatus): 11 to 18 mm
